Data: the NIST ThermoML archive (doi:10.1016/j.jct.2018.11.005)
± gives the expanded uncertainty stated by the source.

Settings: Liquid; for mass density: Vibrating tube method; for speed of sound: Frequency=5 MHz, Single path-length method

CCC(=O)[O-].CC[NH2+]CCO [N-ethyl-2-hydroxyethylammonium propionate]
Settings	mass density [kg/m3]	speed of sound [m/s]
298.14 K, 15000 kPa	1058.3 ± 1.3	–
298.14 K, 30000 kPa	1063.5 ± 1.3	–
298.15 K, 10000 kPa	1057 ± 1.3	–
298.15 K, 25000 kPa	1061.8 ± 1.3	–
298.15 K, 35000 kPa	1064.6 ± 1.3	–
298.16 K, 100 kPa	1051.9 ± 1.2	–
298.16 K, 20000 kPa	1059.9 ± 1.3	–
303.08 K, 35000 kPa	1060.7 ± 1.3	–
303.12 K, 30000 kPa	1059.2 ± 1.3	–
303.14 K, 20000 kPa	1055.6 ± 1.3	–
303.14 K, 25000 kPa	1057.4 ± 1.3	–
303.15 K, 100 kPa	–	1566.6 ± 3.8
303.15 K, 1000 kPa	–	1570.6 ± 3.8
303.15 K, 2000 kPa	–	1574.6 ± 3.8
303.15 K, 3000 kPa	–	1578.7 ± 3.8
303.15 K, 4000 kPa	–	1582.8 ± 3.8
303.15 K, 5000 kPa	–	1586.9 ± 3.8
303.15 K, 6000 kPa	–	1589.6 ± 3.8
303.15 K, 7000 kPa	–	1592.4 ± 3.8
303.15 K, 8000 kPa	–	1595.1 ± 3.8
303.15 K, 9000 kPa	–	1599.3 ± 3.8
303.15 K, 10000 kPa	1052.1 ± 1.3	1603.5 ± 3.8
303.15 K, 11000 kPa	–	1607.7 ± 3.8
303.15 K, 12000 kPa	–	1611.9 ± 3.8
303.15 K, 13000 kPa	–	1616.1 ± 3.8
303.15 K, 14000 kPa	–	1620.3 ± 3.8
303.15 K, 15000 kPa	1053.4 ± 1.3	1623.2 ± 3.8
303.15 K, 16000 kPa	–	1627.4 ± 3.8
303.15 K, 17000 kPa	–	1631.7 ± 3.8
303.15 K, 18000 kPa	–	1634.6 ± 3.8
303.15 K, 19000 kPa	–	1637.5 ± 3.8
303.15 K, 20000 kPa	–	1640.4 ± 3.8
303.16 K, 100 kPa	1046.7 ± 1.2	–
313.07 K, 25000 kPa	1047.8 ± 1.3	–
313.07 K, 30000 kPa	1049.6 ± 1.3	–
313.07 K, 35000 kPa	1051.4 ± 1.3	–
313.09 K, 10000 kPa	1041.8 ± 1.2	–
313.09 K, 20000 kPa	1045.6 ± 1.3	–
313.11 K, 15000 kPa	1043.2 ± 1.3	–
313.14 K, 100 kPa	1035.6 ± 1.2	–
313.15 K, 100 kPa	–	1535.6 ± 3.8
313.15 K, 1000 kPa	–	1539.4 ± 3.8
313.15 K, 2000 kPa	–	1543.3 ± 3.8
313.15 K, 3000 kPa	–	1547.2 ± 3.8
313.15 K, 4000 kPa	–	1552.4 ± 3.8
313.15 K, 5000 kPa	–	1555 ± 3.8
313.15 K, 6000 kPa	–	1560.3 ± 3.8
313.15 K, 7000 kPa	–	1564.2 ± 3.8
313.15 K, 8000 kPa	–	1568.2 ± 3.8
313.15 K, 9000 kPa	–	1572.2 ± 3.8
313.15 K, 10000 kPa	–	1576.2 ± 3.8
313.15 K, 11000 kPa	–	1578.9 ± 3.8
313.15 K, 12000 kPa	–	1583 ± 3.8
313.15 K, 13000 kPa	–	1587.1 ± 3.8
313.15 K, 14000 kPa	–	1591.1 ± 3.8
313.15 K, 15000 kPa	–	1595.3 ± 3.8
313.15 K, 16000 kPa	–	1599.4 ± 3.8
313.15 K, 17000 kPa	–	1603.5 ± 3.8
313.15 K, 18000 kPa	–	1607.7 ± 3.8
313.15 K, 19000 kPa	–	1610.5 ± 3.8
313.15 K, 20000 kPa	–	1614.7 ± 3.8
323.15 K, 100 kPa	1024.4 ± 1.2	1504.9 ± 3.8
323.15 K, 1000 kPa	–	1508.6 ± 3.8
323.15 K, 2000 kPa	–	1512.4 ± 3.8
323.15 K, 3000 kPa	–	1517.3 ± 3.8
323.15 K, 4000 kPa	–	1522.4 ± 3.8
323.15 K, 5000 kPa	–	1527.4 ± 3.8
323.15 K, 6000 kPa	–	1531.2 ± 3.8
323.15 K, 7000 kPa	–	1535 ± 3.8
323.15 K, 8000 kPa	–	1538.9 ± 3.8
323.15 K, 9000 kPa	–	1542.8 ± 3.8
323.15 K, 10000 kPa	–	1546.6 ± 3.8
323.15 K, 11000 kPa	–	1550.5 ± 3.8
323.15 K, 12000 kPa	–	1555.7 ± 3.8
323.15 K, 13000 kPa	–	1559.7 ± 3.8
323.15 K, 14000 kPa	–	1563.6 ± 3.8
323.15 K, 15000 kPa	1032.6 ± 1.2	1566.3 ± 3.8
323.15 K, 16000 kPa	–	1570.3 ± 3.8
323.15 K, 17000 kPa	–	1572.9 ± 3.8
323.15 K, 18000 kPa	–	1575.6 ± 3.8
323.15 K, 19000 kPa	–	1579.6 ± 3.8
323.15 K, 20000 kPa	1035.2 ± 1.2	1583.7 ± 3.8
323.15 K, 25000 kPa	1037.2 ± 1.3	–
323.15 K, 30000 kPa	1039.3 ± 1.3	–
323.15 K, 35000 kPa	1041.5 ± 1.3	–
323.16 K, 10000 kPa	1030.5 ± 1.2	–
333.14 K, 10000 kPa	1018 ± 1.2	–
333.15 K, 100 kPa	–	1485.5 ± 14
333.15 K, 1000 kPa	–	1489.2 ± 14
333.15 K, 2000 kPa	–	1494.2 ± 14
333.15 K, 3000 kPa	–	1497.9 ± 14
333.15 K, 4000 kPa	–	1500.5 ± 14
333.15 K, 5000 kPa	–	1503 ± 3.8
333.15 K, 6000 kPa	–	1508 ± 3.8
333.15 K, 7000 kPa	–	1511.8 ± 3.8
333.15 K, 8000 kPa	–	1514.4 ± 3.8
333.15 K, 9000 kPa	–	1519.4 ± 3.8
333.15 K, 10000 kPa	–	1523.2 ± 3.8
333.15 K, 11000 kPa	–	1525.8 ± 3.8
333.15 K, 12000 kPa	–	1530.9 ± 3.8
333.15 K, 13000 kPa	–	1533.5 ± 3.8
333.15 K, 14000 kPa	–	1536.1 ± 3.8
333.15 K, 15000 kPa	1021 ± 1.2	1540 ± 3.8
333.15 K, 16000 kPa	–	1542.6 ± 3.8
333.15 K, 17000 kPa	–	1546.5 ± 3.8
333.15 K, 18000 kPa	–	1550.4 ± 3.8
333.15 K, 19000 kPa	–	1553 ± 3.8
333.15 K, 20000 kPa	–	1555.6 ± 3.8
333.15 K, 30000 kPa	1028.8 ± 1.2	–
333.15 K, 35000 kPa	1031.3 ± 1.2	–
333.16 K, 100 kPa	1011.9 ± 1.2	–
333.16 K, 20000 kPa	1023.7 ± 1.2	–
333.16 K, 25000 kPa	1026.2 ± 1.2	–
343.14 K, 15000 kPa	1008.7 ± 1.2	–
343.14 K, 25000 kPa	1014.3 ± 1.2	–
343.15 K, 100 kPa	–	1450.5 ± 3.8
343.15 K, 1000 kPa	–	1454.2 ± 3.8
343.15 K, 2000 kPa	–	1458 ± 3.8
343.15 K, 3000 kPa	–	1461.8 ± 3.8
343.15 K, 4000 kPa	–	1466.7 ± 3.8
343.15 K, 5000 kPa	–	1470.5 ± 3.8
343.15 K, 6000 kPa	–	1474.3 ± 3.8
343.15 K, 7000 kPa	–	1478.1 ± 3.8
343.15 K, 8000 kPa	–	1481.9 ± 3.8
343.15 K, 9000 kPa	–	1485.7 ± 3.8
343.15 K, 10000 kPa	–	1489.5 ± 3.8
343.15 K, 11000 kPa	–	1493.3 ± 3.8
343.15 K, 12000 kPa	–	1497.2 ± 3.8
343.15 K, 13000 kPa	–	1501 ± 3.8
343.15 K, 14000 kPa	–	1504.8 ± 3.8
343.15 K, 15000 kPa	–	1507.4 ± 3.8
343.15 K, 16000 kPa	–	1511.2 ± 3.8
343.15 K, 17000 kPa	–	1516.3 ± 3.8
343.15 K, 18000 kPa	–	1520.1 ± 3.8
343.15 K, 19000 kPa	–	1524 ± 3.8
343.15 K, 20000 kPa	–	1526.6 ± 3.8
343.17 K, 100 kPa	998.8 ± 1.2	–
343.17 K, 10000 kPa	1004.6 ± 1.2	–
343.17 K, 30000 kPa	1017.4 ± 1.2	–
343.19 K, 35000 kPa	1020.1 ± 1.2	–
343.21 K, 20000 kPa	1011.2 ± 1.2	–
353.15 K, 100 kPa	–	1416 ± 3.8
353.15 K, 1000 kPa	–	1419.9 ± 3.8
353.15 K, 2000 kPa	–	1423.8 ± 3.8
353.15 K, 3000 kPa	–	1428.9 ± 3.8
353.15 K, 4000 kPa	–	1434 ± 3.8
353.15 K, 5000 kPa	–	1438 ± 3.8
353.15 K, 6000 kPa	–	1443.1 ± 3.8
353.15 K, 7000 kPa	–	1447 ± 3.8
353.15 K, 8000 kPa	–	1451 ± 3.8
353.15 K, 9000 kPa	–	1456.1 ± 3.8
353.15 K, 10000 kPa	–	1460 ± 3.8
353.15 K, 11000 kPa	–	1465.1 ± 3.8
353.15 K, 12000 kPa	–	1469 ± 3.8
353.15 K, 13000 kPa	–	1471.8 ± 3.8
353.15 K, 14000 kPa	–	1476.9 ± 3.8
353.15 K, 15000 kPa	–	1480.8 ± 3.8
353.15 K, 16000 kPa	–	1484.7 ± 3.8
353.15 K, 17000 kPa	–	1488.6 ± 3.8
353.15 K, 18000 kPa	–	1492.5 ± 3.8
353.15 K, 19000 kPa	–	1496.4 ± 3.8
353.15 K, 20000 kPa	–	1500.2 ± 3.8
